Assay results as given in patent publication US7465469B2, “Microbiocidal formulation comprising essentials oils or their derivatives” (State of Israel, Ministry of Agriculture & Rural …, priority 2001, dated 2008).

Legend:
[1] = test system: non-inoculated Washington oranges; assay: Decay percentage of non-inoculated Washington oranges during storage; format: in vivo, Washington navel oranges
Experimental: Non-inoculated Washington navel oranges were divided into […] groups which were treated as follows: (a) no treatment; (b) dipped in 50% Ethanol; (c) dipped in 0.2% Citral in 0.02% L-77 Emulsifier (aqueous emulsion); (d) dipped in 0.2% Citral in 50% Ethanol; and (e) dipped in a 0.2% aqueous Imazalil solution.
Oranges were then stored for four months at 15° C. in 50-75% relative humidity and the percentage of rotten fruit in each group was measured at different time periods after storage.

Penicillium digitatum [2] = assay: Decay of Penicillium-inoculated grapefruit after 2-minute dip; format: in vivo, Penicillium digitatum on grapefruit; details: 25% Ethanol dip; three weeks after inoculation
Excerpt: Unblemished grapefruit were harvested from the orchard and on the same day sorted again in the laboratory to eliminate injured fruit. The grapefruit were washed with tap water and air-dried. Each fruit was then inoculated by piercing its flavedo tissue 1.5 mm deep with a tool incorporating three needles at three different sites. Prior to each piercing, the tool was immersed in a spore suspension of Penicillium digitatum (10^6 spores/ml).

kumquat fruit = assay: Decay of uninoculated kumquat fruit after storage and shelf life simulation; format: in vivo; details: 11 days at 10° C. and shelf life at 20° C. for 6 days; limonene 5000 μL L^−1 exposed to sunlight for 3 hours in 25% ethanol + 5000 μL L^−1 TWEEN 20
Experimental: Exposure to sunlight or irradiation of the dichloromethane or hexane extract of lemon flavedo should be conducted for 3 to 6 hours. The efficiency of the extract hydroperoxide formulation as a biocidal composition grows with longer periods of exposure of the fruit to the hydroperoxide solution. […] The effect of exposure of limonene to 3 hours of sunlight and its efficiency as preventing decay compared to no treatment (dipping in water) or treatment with an ethanol solution (25%) are summarized in Table 4 in a commercial like experiment with uninoculated fruit.

Penicillium digitatum [3] = assay: Decay of lemons inoculated with Penicillium 10^4 spores/ml and dipped; format: in vivo, Penicillium digitatum on lemons; details: inoculated lemons dipped a day after inoculation, kept 6 days at 20° C.
Experimental: Lemon fruit flavedo (exocarp) was taken and extracted overnight in dichloromethane, then exposed to sunlight for about 18 hours until the color of the dichloromethane extract turned brown. The flavedo was blended and filtered through a layer of Whatman paper. The extracted solution was evaporated to remove the dichloromethane and the dense liquor was further separated by chromatography with a silica 60 column using dichloromethane as a carrier. Two fractions of dichloromethane, one green and the other colorless, were obtained after chromatography. The crude active extract was isolated by evaporation of the green dichloromethane fraction. […] Effect of the compounds on pathogen development on the fruit was checked daily during storage.
The antifungal activity of the products prepared in the two different routes was checked in the same method. […] Decay was evaluated at specific intervals during a period of 26 days.
Lemons inoculated with Penicillium (10^4 spores/ml) were dipped in an aqueous solution comprising citral, a detergent (Tween 20), other essential oil components as well as a dichloromethane crude extract of lemon flavedo exposed to sunlight. Decay was evaluated at specific intervals during a period of 20 days.
Pure limonene was exposed to sunlight for three hours. […]

`CCO` [Ethanol 25%, Ethanol] was tested, and the “% of rotten fruit” value ([1]; 0.5 months of storage at 15° C.) was 0%, the “% of rotten fruit” value ([1]; 1 month of storage at 15° C.) was 4% and the “% of rotten fruit” value ([1]; 2 months of storage at 15° C.) was 14%. For the same compound, the “% of rotten fruit” value ([1]; 3 months of storage at 15° C.) was 20%, the “% of rotten fruit” value ([1]; 4 months of storage at 15° C.) was 23% and the fruit rotten (Penicillium digitatum [2]) was “more than 50%”. For the same compound, the “Decay of kumquat fruit, End of storage” value (kumquat fruit) was 7.9 ab and the “% Decay” value (Penicillium digitatum [3]) was 30%.
